# How the values were obtained:
# Assay in all cases: relative viability (nuclei count vs DMSO), 5 days (fraction); higher = more cells survive
# Carfilzomib + Dasatinib = compound: CC(C)C[C@H](NC(=O)[C@H](CCc1ccccc1)NC(=O)CN1CCOCC1)C(=O)N[C@@H](Cc1ccccc1)C(=O)N[C@@H](CC(C)C)C(=O)[C@@]1(C)CO1 [Carfilzomib] + Cc1nc(Nc2ncc(C(=O)Nc3c(C)cccc3Cl)s2)cc(N2CCN(CCO)CC2)n1 [Dasatinib] (partner 0.075 µM)
# In short: (§1)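 Relative viability is defined as nuclei in treated wells over nuclei in vehicle wells. Duplicate plates were run and medians reported. Lung cancer cell lines in 1536-well plates were dosed by pin tool one day after seeding, with one drug or with a fixed anchor-drug dose plus five library-drug doses (not always all listed) in √10 steps, and nuclei were counted after 5 days.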
# Crizotinib + Bortezomib = compound: C[C@@H](Oc1cc(-c2cnn(C3CCNCC3)c2)cnc1N)c1c(Cl)ccc(F)c1Cl [Crizotinib] + CC(C)C[C@H](NC(=O)[C@H](Cc1ccccc1)NC(=O)c1cnccn1)B(O)O [Bortezomib] (partner 0.002 µM)
# In short: as §1
# Crizotinib + Olaparib = compound: C[C@@H](Oc1cc(-c2cnn(C3CCNCC3)c2)cnc1N)c1c(Cl)ccc(F)c1Cl [Crizotinib] + O=C(c1cc(Cc2n[nH]c(=O)c3ccccc23)ccc1F)N1CCN(C(=O)C2CC2)CC1 [Olaparib] (partner 8 µM)
# In short: as §1
# Olaparib + Pemetrexed = compound: O=C(c1cc(Cc2n[nH]c(=O)c3ccccc23)ccc1F)N1CCN(C(=O)C2CC2)CC1 [Olaparib] + Nc1nc2[nH]cc(CCc3ccc(C(=O)N[C@@H](CCC(=O)O)C(=O)O)cc3)c2c(=O)[nH]1 [Pemetrexed] (partner 0.2 µM)
# In short: as §1
Cell Line,relative viability (Carfilzomib + Dasatinib; first compound 0.001 µM),relative viability (Carfilzomib + Dasatinib; first compound 0.003162 µM),relative viability (Carfilzomib + Dasatinib; first compound 0.01 µM),relative viability (Carfilzomib + Dasatinib; first compound 0.03162 µM),relative viability (Carfilzomib + Dasatinib; first compound 0.1 µM),relative viability (Crizotinib + Bortezomib; first compound 0.01 µM),relative viability (Crizotinib + Bortezomib; first compound 0.03162 µM),relative viability (Crizotinib + Bortezomib; first compound 0.1 µM),relative viability (Crizotinib + Bortezomib; first compound 0.3162 µM),relative viability (Crizotinib + Bortezomib; first compound 1 µM),relative viability (Crizotinib + Olaparib; first compound 0.01 µM),relative viability (Crizotinib + Olaparib; first compound 0.03162 µM),relative viability (Crizotinib + Olaparib; first compound 0.1 µM),relative viability (Crizotinib + Olaparib; first compound 0.3162 µM),relative viability (Crizotinib + Olaparib; first compound 1 µM),relative viability (Olaparib + Pemetrexed; first compound 0.08 µM),relative viability (Olaparib + Pemetrexed; first compound 0.253 µM),relative viability (Olaparib + Pemetrexed; first compound 2.53 µM),relative viability (Olaparib + Pemetrexed; first compound 8 µM)
NCI-H2023,0.569,0.698,0.59,0.181,0.082,0.813,0.964,0.88,0.647,0.806,0.449,0.498,0.521,0.408,0.451,0.215,0.231,0.241,0.156
LU99A,0.533,0.688,0.512,0.278,0.152,1.1,1.14,1.14,1.07,1.04,0.246,0.258,0.272,0.236,0.266,0.187,0.212,0.161,0.148
NCI-H2228,0.539,0.526,0.442,0.0721,0.0819,0.84,0.874,0.833,0.647,0.346,0.539,0.595,0.624,0.716,0.668,0.395,0.323,0.311,0.322
HCC-15,0.609,0.654,0.673,0.3,0.0867,0.916,–,1.06,0.826,0.891,0.724,0.648,0.712,0.76,0.772,0.215,0.224,0.209,0.221
RERF-LC-KJ,0.792,0.82,0.867,0.388,0.184,1.02,0.951,1.1,1,1.09,0.843,0.887,0.928,0.919,0.802,0.527,0.477,0.481,0.449
NCI-H647,0.198,0.21,0.149,0.0266,0.0232,0.638,1.01,0.827,0.94,0.943,0.444,0.68,0.564,0.505,0.597,0.193,0.156,0.138,0.15
201T,0.51,0.61,0.643,0.593,0.522,1.07,1.09,–,1.14,1.2,0.776,0.83,0.892,0.846,0.861,0.309,0.346,0.298,0.323
HCC-366,0.624,0.727,0.629,0.705,0.173,1.01,1.04,1.02,–,1.15,0.357,0.357,0.329,–,0.356,0.165,0.195,0.206,0.271
HOP-62,0.618,0.655,0.499,0.0996,0.0979,0.822,0.788,1.03,0.523,0.584,0.38,0.415,0.479,0.316,0.504,0.353,0.316,0.337,0.322

# Source: the supplement of paper PMC10307832
